Positions of bridges follow the written chain, without caps; N, C: chain ends. Non-standard residues stand in square brackets, D forms with d. Residues, ends and D or L forms follow the SMILES beside them. *: point of attachment. Malonyl(2,2-Me2,histaminyl) = CC(C)(C(=O)NCCc1cnc[nH]1)C(=O)*; Ala(1H-tetrazol-5-yl) = N[C@@H](Cc1nnn[nH]1)C(=O)O; αMePhe(2-F) = C[C@](N)(Cc1ccccc1F)C(=O)O; αMeL = CC(C)C[C@](C)(N)C(=O)O; Nle = CCCC[C@H](N)C(=O)O; Aib = CC(C)(N)C(=O)O
Columns and labels:
[1] = molecular target: T1, human GLP2 receptor (Homo sapiens, UniProt O95838); experiment: cAMP accumulation assay, functional agonism of human GLP2 receptor; assay type: cell-based; conditions: HEK cells infected with human GLP2 receptor BacMam virus, HTRF cAMP; for Emax: HEK293, read-out: Human GLP-2R agonist cAMP Emax; for EC50: read-out: Human GLP-2R agonist cAMP pEC50 (converted)
T1 construct: expressed in transfected cells; host or cells: HEK cells, BacMam virus transduction
T1 sequence (O95838 1-553): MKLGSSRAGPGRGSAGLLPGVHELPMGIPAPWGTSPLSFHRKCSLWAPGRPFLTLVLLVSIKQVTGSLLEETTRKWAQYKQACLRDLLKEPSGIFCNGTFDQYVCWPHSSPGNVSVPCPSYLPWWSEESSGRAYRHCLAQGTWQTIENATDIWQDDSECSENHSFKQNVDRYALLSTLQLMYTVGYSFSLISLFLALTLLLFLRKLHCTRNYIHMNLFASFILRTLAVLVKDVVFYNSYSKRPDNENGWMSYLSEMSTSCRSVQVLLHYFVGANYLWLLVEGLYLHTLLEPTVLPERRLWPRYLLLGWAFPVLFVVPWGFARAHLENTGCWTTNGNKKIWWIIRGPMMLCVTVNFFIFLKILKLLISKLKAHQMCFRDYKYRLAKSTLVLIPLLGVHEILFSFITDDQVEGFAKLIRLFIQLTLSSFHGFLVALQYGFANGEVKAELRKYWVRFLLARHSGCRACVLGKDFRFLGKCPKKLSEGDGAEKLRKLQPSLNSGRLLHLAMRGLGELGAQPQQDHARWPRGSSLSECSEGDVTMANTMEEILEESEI
Procedure, shortened: (§1)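 HEK cells transduced 24 h with human GLP1 or GLP2 receptor BacMam virus, then frozen until use. Agonist stimulation for 45 min at 37 °C in HBSS with 0.5 mM IBMX; cAMP measured by HTRF after lysis.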

[2] = molecular target: T2, human GLP1 receptor (Homo sapiens, UniProt P43220); experiment: cAMP accumulation assay, functional agonism of human GLP1 receptor; assay type: cell-based; conditions: HEK cells infected with human GLP1 receptor BacMam virus, HTRF cAMP; for Emax: HEK293, read-out: Human GLP-1R agonist cAMP Emax; for EC50: read-out: Human GLP-1R agonist cAMP pEC50 (converted)
T2 construct: expressed in transfected cells; host or cells: HEK cells, BacMam virus transduction
Procedure, shortened: as §1

[3] = Stability of peptides in Fasted-State Simulated Intestinal Fluid (FaSSIF); assay type: in vitro ADME; conditions: FaSSIF with 10 mg/ml pancreatin, 37° C.; for remaining at 0.5 h: t=30 mins, pH 6.5, 10 mg/ml pancreatin; for remaining at 0.25 h: FaSSIF pH 6.5 with 10 mg/ml pancreatin, t = 15 mins
Method: Stability of peptides was tested in Fasted-State Simulated Intestinal Fluid (FaSSIF) prepared according to manufacturer's protocol (Biorelevant, art.no. FFF01, pH 6.5). […] FaSSIF was pre-incubated for 15 min at 37° C. and spiked with test and reference item working solutions. Experiments were conducted in duplicate in a non-serial manner. The total incubation volume per replicate was 150 μl. Sampling time points for test items were 0, 0.5, 2, 5, 10, 15 and 30 min. All samples and calibration standards (prepared in FaSSIF) were precipitated by addition of 300 μl precipitant (ACN / 2% acetic acid / 0.2% HFBA, (precipitation reagent, PR)) containing internal standard (ISTD) to 150 μl sample. After incubation for 1 h at room temperature all samples were centrifuged for 10 min at 2,200×g (room temperature).

T2 sequence (P43220 24-463): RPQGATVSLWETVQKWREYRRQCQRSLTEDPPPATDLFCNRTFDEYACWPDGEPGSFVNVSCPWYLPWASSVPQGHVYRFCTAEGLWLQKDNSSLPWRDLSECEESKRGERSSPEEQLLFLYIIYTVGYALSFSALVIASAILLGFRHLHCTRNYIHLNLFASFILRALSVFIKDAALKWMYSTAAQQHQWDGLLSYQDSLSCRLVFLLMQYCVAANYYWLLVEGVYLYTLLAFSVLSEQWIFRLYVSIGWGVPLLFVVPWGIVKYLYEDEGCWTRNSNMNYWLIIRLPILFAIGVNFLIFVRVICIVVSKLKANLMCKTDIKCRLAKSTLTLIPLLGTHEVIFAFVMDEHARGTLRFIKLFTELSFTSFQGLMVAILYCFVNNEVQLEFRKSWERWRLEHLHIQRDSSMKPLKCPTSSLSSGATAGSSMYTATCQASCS

Row | Structure (SMILES) | Emax [1] [%] | EC50 [1] [nM] | Emax [2] [%] | EC50 [2] [nM] | remaining at 0.5 h [3] [%] | remaining at 0.25 h [3] [%]
1 | CCCC[C@H](NC(=O)[C@H](CCC(=O)O)NC(=O)[C@@H]1CC(=O)NCCCC[C@H](NC(=O)[C@H](Cc2nn[nH]n2)NC(=O)C(C)(C)C(=O)NCCc2c[nH]cn2)C(=O)N[C@@H](CO)C(=O)N[C@@H](Cc2ccccc2)C(=O)N[C@@H](CO)C(=O)N1)C(=O)N[C@H](Cc1ccccc1)C(=O)N[C@H](C(=O)N[C@@](C)(CC(C)C)C(=O)N[C@@H](CC(C)C)C(=O)N[C@@H](CC(=O)O)C(=O)N[C@H]1CCC(=O)NCCCC[C@@H](C(=O)N[C@@H](CC(=O)O)C(=O)N[C@@H](Cc2ccccc2)C(=O)N[C@H](C(=O)N[C@H]2CCC(=O)NCCCC[C@@H](C(=O)N[C@H](C(=O)N[C@@H](CCCCN)C(N)=O)[C@@H](C)O)NC(=O)[C@H]([C@@H](C)CC)NC(=O)[C@H](CC(C)C)NC(=O)[C@H](Cc3c[nH]c4ccccc34)NC2=O)[C@@H](C)CC)NC(=O)[C@H](C)NC(=O)[C@H](C)NC(=O)[C@H](CCCCN)NC1=O)[C@@H](C)O [Example 17] ({Malonyl(2,2-Me2,histaminyl)}-[Ala(1H-tetrazol-5-yl)]KSFSDE[Nle][dF]T[αMeL]LDEKAAKDFIEWLIKTK-NH2; lactam 2-6, 14-18, 22-26; C-terminus assumed) | 104 | 0.0398 | 96.3 | 0.158 | 68.7 | 
2 | CCCC[C@H](NC(=O)[C@H](CCC(=O)O)NC(=O)[C@H](CC(=O)O)NC(=O)[C@H](CO)NC(=O)[C@H](Cc1ccccc1)NC(=O)[C@H](CO)NC(=O)CNC(=O)[C@H](CC(=O)O)NC(=O)C(C)(C)NC(=O)[C@@H](N)Cc1c[nH]cn1)C(=O)N[C@H]1CC(=O)NCCCC[C@@H](C(=O)N[C@@H](CC(C)C)C(=O)N[C@@H](CCCCN)C(=O)N[C@@H](C)C(=O)N[C@@H](C)C(=O)N[C@@H](CCCCN)C(=O)N[C@@H](CC(=O)O)C(=O)N[C@@H](Cc2ccccc2)C(=O)N[C@H](C(=O)N[C@@H](CC(N)=O)C(=O)N[C@@H](Cc2c[nH]c3ccccc23)C(=O)N[C@@H](CC(C)C)C(=O)N[C@H](C(=O)N[C@@H](CCC(N)=O)C(=O)N[C@H](C(=O)N[C@@H](CCCCN)C(=O)N[C@H](C(=O)N[C@H](C(=O)N[C@@H](CC(=O)O)C(N)=O)[C@@H](C)O)[C@@H](C)CC)[C@@H](C)O)[C@@H](C)CC)[C@@H](C)CC)NC(=O)[C@H](CC(C)C)NC(=O)[C@H]([C@@H](C)CC)NC(=O)[C@H]([C@@H](C)O)NC1=O [Example 86] (H-H[Aib]DGSFSDE[Nle]DTILKLKAAKDFINWLIQTKITD-NH2; lactam 11-15; C-terminus assumed) | 103 | 0.0251 | 93.5 | 25.1 |  | 5.1
3 | CCCC[C@H](NC(=O)[C@H](CCC(=O)O)NC(=O)[C@H](CC(=O)O)NC(=O)[C@H](CO)NC(=O)[C@H](Cc1ccccc1)NC(=O)[C@H](CO)NC(=O)CNC(=O)[C@H](CC(=O)O)NC(=O)C(C)(C)NC(=O)[C@@H](N)Cc1c[nH]cn1)C(=O)N[C@H](Cc1ccccc1)C(=O)N[C@H](C(=O)N[C@H](C(=O)N[C@@H](CC(C)C)C(=O)N[C@@H](CC(=O)O)C(=O)N[C@@H](CC(C)C)C(=O)N[C@@H](CCCCN)C(=O)N[C@@H](C)C(=O)N[C@@H](C)C(=O)N[C@@H](CCCCN)C(=O)N[C@@H](CC(=O)O)C(=O)N[C@@H](Cc1ccccc1)C(=O)N[C@H](C(=O)N[C@@H](CC(N)=O)C(=O)N[C@@H](Cc1c[nH]c2ccccc12)C(=O)N[C@@H](CC(C)C)C(=O)N[C@H](C(=O)N[C@@H](CCC(N)=O)C(=O)N[C@H](C(=O)N[C@H]1CCC(=O)NCCCC[C@@H](C(N)=O)NC(=O)[C@H]([C@@H](C)O)NC(=O)[C@H]([C@@H](C)CC)NC1=O)[C@@H](C)O)[C@@H](C)CC)[C@@H](C)CC)[C@@H](C)CC)[C@@H](C)O [Example 90] (H-H[Aib]DGSFSDE[Nle][dF]TILDLKAAKDFINWLIQTEITK-NH2; lactam 30-33 (inferred); C-terminus assumed) | 102 | 0.0251 | 100 | 7.94 |  | 22

Further lines, results first:

Row | Emax [1] [%] | EC50 [1] [nM] | Emax [2] [%] | EC50 [2] [nM] | remaining at 0.5 h [3] [%] | remaining at 0.25 h [3] [%] | Structure (SMILES)
4 | 104 | 0.0158 | 97.8 | 0.1 | 17.3 |  | CCCC[C@@H]1NC(=O)[C@H](CCC(=O)O)NC(=O)[C@@H](NC(=O)[C@H](CO)NC(=O)[C@](C)(Cc2ccccc2F)NC(=O)[C@H](CO)NC(=O)CNC(=O)[C@H](CC(=O)O)NC(=O)C(C)(C)NC(=O)[C@@H](N)Cc2c[nH]cn2)CCCCNC(=O)C[C@@H](C(=O)N[C@H](C(=O)N[C@@H](CC(C)C)C(=O)N[C@@H](CC(=O)O)C(=O)N[C@H]2CCC(=O)NCCCC[C@@H](C(=O)N[C@@H](CC(=O)O)C(=O)N[C@@H](Cc3ccccc3)C(=O)N[C@H](C(=O)N[C@@H](CC(N)=O)C(=O)N[C@@H](Cc3c[nH]c4ccccc34)C(=O)N[C@@H](CC(C)C)C(=O)N[C@H](C(=O)N[C@@H](CCC(N)=O)C(=O)N[C@H]3CCC(=O)NCCCC[C@@H](C(N)=O)NC(=O)[C@H]([C@@H](C)O)NC(=O)[C@H]([C@@H](C)CC)NC(=O)[C@H](CCCCN)NC3=O)[C@@H](C)CC)[C@@H](C)CC)NC(=O)[C@H](C)NC(=O)[C@H](C)NC(=O)[C@H](CCCCN)NC2=O)[C@@H](C)CC)NC(=O)[C@@H](Cc2ccccc2)NC1=O [Example 18] (H-H[Aib]DGS[αMePhe(2-F)]SKE[Nle][dF]DILDEKAAKDFINWLIQEKITK-NH2; lactam 8-12, 16-20, 29-33; C-terminus assumed)
5 | 104 |  | 96.6 |  | 51.7 |  | CCCC[C@H](NC(=O)[C@H](CCC(=O)O)NC(=O)[C@@H]1CC(=O)NCCCC[C@H](NC(=O)[C@H](CC(=O)O)NC(=O)C(C)(C)NC(=O)[C@@H](N)Cc2c[nH]cn2)C(=O)N[C@@H](CO)C(=O)N[C@@H](Cc2ccccc2)C(=O)N[C@@H](CO)C(=O)N1)C(=O)N[C@H](Cc1ccccc1)C(=O)N[C@H](C(=O)N[C@@](C)(CC(C)C)C(=O)N[C@@H](CC(C)C)C(=O)N[C@@H](CC(=O)O)C(=O)N[C@H]1CCC(=O)NCCCC[C@@H](C(=O)N[C@@H](CC(=O)O)C(=O)N[C@@H](Cc2ccccc2)C(=O)N[C@H](C(=O)N[C@H]2CCC(=O)NCCCC[C@@H](C(=O)N[C@H](C(=O)N[C@@H](CCCCN)C(N)=O)[C@@H](C)O)NC(=O)[C@H]([C@@H](C)CC)NC(=O)[C@H](CC(C)C)NC(=O)[C@H](Cc3c[nH]c4ccccc34)NC2=O)[C@@H](C)CC)NC(=O)[C@H](C)NC(=O)[C@H](C)NC(=O)[C@H](CCCCN)NC1=O)[C@@H](C)O [Example 21] (H-H[Aib]DKSFSDE[Nle][dF]T[αMeL]LDEKAAKDFIEWLIKTK-NH2; lactam 4-8, 16-20, 24-28; N-terminus and C-terminus assumed)

Reference: patent US20240270809A1, “ORAL GLP RECEPTOR AGONISTS” (priority 2020, published 2024)
